Source: patent US12129221B2, “Difluoro phenyl amide RIP1 inhibitor” (SIRONAX LTD, priority 2018, dated 2024)
Where two headings read alike, the source gives them in different places.

Key:
[1] = test system: necrosis; assay: Necrosis inhibitory activity (cell necrosis / cell viability assay); format: cell-based; conditions: read-out: EC50
Source text: Necrosis Inhibitory Activity
Representative IC50 of hRIP1 Kinase Assay Correlated with Our IC50 of Cell Necrosis Assay: […]

[2] = test system: ferroptosis; assay: Ferroptosis inhibitor activity; format: cell-based; conditions: 1 uM threshold activity extrapolated
Source text: Ferroptosis Inhibitor Activity 1 Um Threshold Activity Extrapolated

[3] = Prodrug enhanced metabolic stability: liver microsome (L); format: in vitro ADME; parameters: key: +, Extrapolated
Source text: (§1) Prodrug Enhanced Metabolic Stability: Liver Microsome (L), Hepatocyte (H) and PK

[4] = Prodrug enhanced metabolic stability: hepatocyte (H); format: in vitro ADME; parameters: key: +, Extrapolated
Source text: as §1

[5] = Prodrug enhanced metabolic stability: PK; format: in vivo; parameters: key: +, Extrapolated
Source text: as §1

[6] = Necrosis Inhibitory Activity, given as range

| Structure (SMILES) | EC50 [2] [nM] | L [3] | H [4] | PK [5] | EC50 [1, 6] [nM] | EC50 ([1]; Active Pro-drugs) [nM] |
| --- | --- | --- | --- | --- | --- | --- |
| CCC(C)(C)C(=O)N(O)Cc1ccccc1F [Compound 1, N-(2-fluorobenzyl)-N-hydroxy-2,2-dimethylbutanamide] | 1000 to 10000 | – | – | – | 1 to 1000 | – |
| CCC(C)(C)C(=O)N(O)Cc1cccc(F)c1 [Compound 2, N-(3-fluorobenzyl)-N-hydroxy-2,2-dimethylbutanamide] | 1000 to 10000 | – | – | – | 1 to 1000 | – |
| CCC(C)(C)C(=O)N(O)Cc1ccccc1Cl [Compound 3, N-(2-chlorobenzyl)-N-hydroxy-2,2-dimethylbutanamide] | 1000 to 10000 | – | – | – | 1 to 1000 | – |
| CCC(C)(C)C(=O)N(O)Cc1cccc(Cl)c1 [Compound 4, N-(3-chlorobenzyl)-N-hydroxy-2,2-dimethylbutanamide] | 1000 to 10000 | – | – | – | 1 to 1000 | – |
| CCC(C)(C)C(=O)N(O)Cc1cccc(Br)c1 [Compound 5, N-(3-bromobenzyl)-N-hydroxy-2,2-dimethylbutanamide] | 1000 to 10000 | – | – | – | 1 to 1000 | – |
| CC(C)(C(=O)N(O)Cc1ccccc1)C(F)(F)F [Compound 6, N-benzyl-3,3,3-trifluoro-N-hydroxy-2,2-dimethylpropanamide] | 1000 to 10000 | – | – | – | 1 to 1000 | – |
| CC(C)(C)C(=O)N(O)Cc1ccccc1 [Compound 7, N-benzyl-N-hydroxypivalamide] | 1000 to 10000 | – | – | – | 1 to 1000 | – |
| CCC(C)(C)C(=O)N(O)Cc1ccccn1 [Compound 8, N-hydroxy-2,2-dimethyl-N-(pyridin-2-ylmethyl)butanamide] | 1000 to 10000 | – | – | – | 1000 to 10000 | – |
| CCC(C)(C)C(=O)N(O)Cc1cccc(F)c1F [Compound 9, N-(2,3-difluorobenzyl)-N-hydroxy-2,2-dimethylbutanamide] | 1000 to 10000 | – | – | – | 1 to 1000 | – |
| CCC(C)(C)C(=O)N(O)Cc1c(F)cc(F)cc1F [Compound 10, N-hydroxy-2,2-dimethyl-N-(2,4,6-trifluorobenzyl)butanamide] | 1000 to 10000 | – | – | – | 1000 to 10000 | – |
| CCC(C)(C)C(=O)N(O)Cc1c(F)c(F)c(F)c(F)c1F [Compound 11, N-hydroxy-2,2-dimethyl-N-((perfluorophenyl)methyl)butanamide] | 1000 to 10000 | – | – | – | 1000 to 10000 | – |
| CCC(C)(C)C(=O)N(O)Cc1cc(F)cc(C#N)c1 [Compound 12, N-(3-cyano-5-fluorobenzyl)-N-hydroxy-2,2-dimethylbutanamide] | 1000 to 10000 | – | – | – | 1 to 1000 | – |
| CCC(C)(C)C(=O)N(O)Cc1cc(F)ccc1F [Compound 14, N-(2,5-difluorobenzyl)-N-hydroxy-2,2-dimethylbutanamide] | 1000 to 10000 | – | – | – | 1 to 1000 | – |
| CCC(C)(C)C(=O)N(O)Cc1cc(F)cc(Cl)c1 [Compound 17, N-(3-chloro-5-fluorobenzyl)-N-hydroxy-2,2-dimethylbutanamide] | 1000 to 10000 | – | – | – | 1 to 1000 | – |
| CCC(C)(C)C(=O)N(O)Cc1ccc(Br)cc1 [Compound 18, N-(4-bromobenzyl)-N-hydroxy-2,2-dimethylbutanamide] | 1000 to 10000 | – | – | – | 1 to 1000 | – |
| CCC(C)(C)C(=O)N(O)Cc1cc(C)c(C)s1 [Compound 21, N-((4,5-dimethylthiophen-2-yl)methyl)-N-hydroxy-2,2-dimethylbutanamide] | 1000 to 10000 | – | – | – | 1 to 1000 | – |
| CCC(C)(C)C(=O)N(O)Cc1sccc1C [Compound 22, N-hydroxy-2,2-dimethyl-N-((3-methylthiophen-2-yl)methyl)butanamide] | 1000 to 10000 | – | – | – | 1000 to 10000 | – |
| CCC(C)(C)C(=O)N(O)CC1=CCCCC1 [Compound 25, N-(cyclohex-1-en-1-ylmethyl)-N-hydroxy-2,2-dimethylbutanamide] | 1000 to 10000 | – | – | – | 1 to 1000 | – |
| [2H]C([2H])C([2H])([2H])C(C)(C)C(=O)N(O)Cc1ccc(F)cc1 [Compound 29, N-(4-fluorobenzyl)-N-hydroxy-2,2-dimethylbutanamide-3,3,4,4-d4] | 1000 to 10000 | – | – | – | 1 to 1000 | – |
| [2H]c1c([2H])c([2H])c(C([2H])([2H])N(O)C(=O)C(C)(C)CC)c([2H])c1[2H] [Compound 30, N-hydroxy-2,2-dimethyl-N-((phenyl-d5)methyl-d2)butanamide] | 1000 to 10000 | – | – | – | 1 to 1000 | – |
| [2H]CC([2H])C(C)(C)C(=O)N(O)C([2H])([2H])c1c([2H])c([2H])c([2H])c([2H])c1[2H] (centres unmarked) [Compound 31, N-hydroxy-2,2-dimethyl-N-((phenyl-d5)methyl-d2)butanamide-3,4-d2] | 1000 to 10000 | – | – | – | 1 to 1000 | – |
| CC1(C(C)(C)C(=O)N(O)Cc2ccccc2)CC1 [Compound 32, N-benzyl-N-hydroxy-2-methyl-2-(1-methylcyclopropyl) propanamide] | 1000 to 10000 | – | – | – | 1 to 1000 | – |

Now from value to compound, other results behind:

| EC50 [2] [nM] | L [3] | H [4] | PK [5] | Structure (SMILES) | EC50 [1, 6] [nM] | EC50 ([1]; Active Pro-drugs) [nM] |
| --- | --- | --- | --- | --- | --- | --- |
| 1000 to 10000 | – | – | – | O=C(C1CCCC1)N(O)Cc1ccccc1 [Compound 33, N-benzyl-N-hydroxycydopentanecarboxamide] | 1000 to 10000 | – |
| 1000 to 10000 | – | – | – | O=C(N(O)Cc1ccccc1)C1(C(F)(F)F)CCCC1 [Compound 34, N-benzyl-N-hydroxy-1-(trifluoromethyl)cyclopentane-1-carboxamide] | 1 to 1000 | – |
| 1000 to 10000 | – | – | – | CC1(C(=O)N(O)Cc2ccccc2)CCCCC1 [Compound 36, N-benzyl-N-hydroxy-1-methylcyclohexane-1-carboxamide] | 1 to 1000 | – |
| 1000 to 10000 | – | – | – | O=C(C1CCCCC1)N(O)Cc1ccccc1 [Compound 37, N-benzyl-N-hydroxycyclohexanecarboxamide] | 1000 to 10000 | – |
| 1000 to 10000 | – | – | – | CCC1(C(=O)N(O)Cc2ccc(F)cc2)CC1 [Compound 39, 1-ethyl-N-(4-fluorobenzyl)-N-hydroxycyclopropane-1-carboxamide] | 1000 to 100000 | – |
| 1000 to 10000 | – | – | – | CCC1(C(=O)N(O)Cc2ccc(Cl)cc2)CC1 [Compound 40, N-(4-chlorobenzyl)-1-ethyl-N-hydroxycyclopropane-1-carboxamide] | 1000 to 10000 | – |
| 1000 to 10000 | – | – | – | CCC1(C(=O)N(O)Cc2cc(F)cc(F)c2)CC1 [Compound 41, N-(3,5-difluorobenzyl)-1-ethyl-N-hydroxycyclopropane-1-carboxamide] | 1000 to 10000 | – |
| 1000 to 10000 | – | – | – | CC(C)(C(=O)N(O)Cc1ccc(Br)cc1)C(F)(F)F [Compound 42, N-(4-bromobenzyl)-3,3,3-trifluoro-N-hydroxy-2,2-dimethylpropanamide] | 1 to 1000 | – |
| 1000 to 10000 | – | – | – | CC(C)(C(=O)N(O)Cc1ccc(F)cc1)C(F)(F)F [Compound 43, 3,3,3-trifluoro-N-(4-fluorobenzyl)-N-hydroxy-2,2-dimethylpropanamide] | 1 to 1000 | – |
| 1000 to 10000 | – | – | – | CC(C)(C(=O)N(O)Cc1ccc(Cl)cc1)C(F)(F)F [Compound 44, N-(4-chlorobenzyl)-3,3,3-trifluoro-N-hydroxy-2,2-dimethylpropanamide] | 1 to 1000 | – |
| 1000 to 10000 | – | – | – | CC(C)(C(=O)N(O)Cc1cc(F)cc(F)c1)C(F)(F)F [Compound 45, N-(3,5-difluorobenzyl)-3,3,3-trifluoro-N-hydroxy-2,2-dimethylpropanamide] | 1 to 1000 | – |
| 1000 to 10000 | – | – | – | CC(C)(C(=O)N(O)Cc1cc(F)c(F)c(F)c1)C(F)(F)F [Compound 46, 3,3,3-trifluoro-N-hydroxy-2,2-dimethyl-N-(3,4,5-trifluorobenzyl)propenamide] | 1000 to 10000 | – |
| 1000 to 10000 | – | – | – | Cc1cc(CN(O)C(=O)C(C)(C)C(F)(F)F)sc1C [Compound 47, N-((4,5-dimethylthiophen-2-yl)methyl)-3,3,3-trifluoro-N-hydroxy-2,2-dimethylpropanamide] | 1 to 1000 | – |
| 1000 to 10000 | – | – | – | CC(C)(C(=O)N(O)Cc1cccs1)C(F)(F)F [Compound 49, 3,3,3-trifluoro-N-hydroxy-2,2-dimethyl-N-(thiophen-2-ylmethyl)propanamide] | 1 to 1000 | – |
| – | + | + | + | CCOC(=O)ON(Cc1ccccc1)C(=O)C(C)(C)CC [Compound 50, N-benzyl-N-((ethoxycarbonyl)oxy)-2,2-dimethylbutanamide] | – | 69.6 |
| – | + | + | + | CCC(C)(C)C(=O)N(Cc1ccccc1)OC(=O)c1ccccc1 [Compound 51, N-(benzoyloxy)-N-benzyl-2,2-dimethylbutanamide] | – | 284 |
| – | + | + | + | CCC(C)(C)C(=O)N(Cc1ccccc1)OC(=O)CC(=O)ON(Cc1ccccc1)C(=O)C(C)(C)CC [Compound 52, N,N′-(malonylbis(oxy))bis(N-benzyl-2,2-dimethylbutanamide)] | – | 42.2 |
| – | + | + | + | CCC(C)(C)C(=O)N(Cc1ccccc1)OC(=O)CCC(=O)ON(Cc1ccccc1)C(=O)C(C)(C)CC [Compound 53, N,N′-(succinylbis(oxy))bis(N-benzyl-2,2-dimethylbutanamide)] | – | 85.5 |
| – | + | + | + | CCC(C)(C)C(=O)N(Cc1ccccc1)OC(=O)c1cccc(C(=O)ON(Cc2ccccc2)C(=O)C(C)(C)CC)c1 [Compound 54, N,N′-(isophthaloylbis(oxy))bis(N-benzyl-2,2-dimethylbutanamide)] | – | 466 |
| – | + | + | + | CCC(C)(C)C(=O)N(Cc1ccccc1)OC(=O)OCCOCCOCCOC(=O)ON(Cc1ccccc1)C(=O)C(C)(C)CC [Compound 55, N,N′-(2,5,8,11-tetraoxadodecanedioylbis(oxy))bis(N-benzyl-2,2-dimethylbutanamide)] | – | 99.3 |
| 1000 to 10000 | – | – | – | O=C(C1CCN(c2ncc(F)cn2)CC1)N(O)Cc1ccc(F)cc1 [Compound 85, N-(4-fluorobenzyl)-1-(5-fluoropyrimidin-2-yl)-N-hydroxypiperidine-4-carboxamide] | 1000 to 10000 | – |
